Source: ChEMBL document CHEMBL2417425, “Design and synthesis of positional isomers of 5 and 6-bromo-1-[(phenyl)sulfonyl]-2-[(4-nitrophenoxy)methyl]-1H-benzimidazoles as possible antimicrobial and antitubercular agents” (2013)
≈ marks a conversion by molar mass, not a printed value.

Key:
Assay type in all cases: functional
Klebsiella pneumoniae [1] = assay: Antibacterial activity against Klebsiella pneumoniae assessed as growth inhibition by serial dilution method
[2] = system: Mycobacterium tuberculosis; assay: Antimycobacterial activity against Mycobacterium tuberculosis H37Rv assessed as growth inhibition at 0.3125 to 5 ug/mL by resazurin assay
Candida albicans = assay: Antifungal activity against Candida albicans assessed as growth inhibition by serial dilution method
[3] = system: Mycobacterium tuberculosis; assay: Antimycobacterial activity against Mycobacterium tuberculosis H37Rv assessed as growth inhibition at 1 to 100 ug/mL by resazurin assay
Rhizopus = assay: Antifungal activity against Rhizopus sp. assessed as growth inhibition by serial dilution method
Klebsiella pneumoniae [4] = assay: Potency index, ratio of ciprofloxacin MIC to compound MIC for Klebsiella pneumoniae
Escherichia coli = assay: Antibacterial activity against Escherichia coli assessed as growth inhibition by serial dilution method
Staphylococcus aureus [5] = assay: Potency index, ratio of ciprofloxacin MIC to compound MIC for Staphylococcus aureus
Aspergillus flavus = assay: Antifungal activity against Aspergillus flavus assessed as growth inhibition by serial dilution method
[6] = system: Mycolicibacterium smegmatis; assay: Antimycobacterial activity against Mycobacterium smegmatis ATCC 19420 assessed as growth inhibition at 0.3125 to 5 ug/mL by resazurin assay
[7] = system: Mycolicibacterium fortuitum; assay: Antimycobacterial activity against Mycobacterium fortuitum ATCC 19542 assessed as growth inhibition at 0.3125 to 5 ug/mL by resazurin assay
Staphylococcus aureus [8] = assay: Antibacterial activity against Staphylococcus aureus assessed as growth inhibition by serial dilution method
[9] = system: Mycolicibacterium smegmatis; assay: Antimycobacterial activity against Mycobacterium smegmatis ATCC 19420 assessed as growth inhibition at 1 to 100 ug/mL by resazurin assay
[10] = system: Mycolicibacterium fortuitum; assay: Antimycobacterial activity against Mycobacterium fortuitum ATCC 19542 assessed as growth inhibition at 1 to 100 ug/mL by resazurin assay

`O=[N+]([O-])c1ccc(OCc2nc3cc(Br)ccc3n2S(=O)(=O)c2cc(F)ccc2F)cc1` was tested, and the MIC (Klebsiella pneumoniae [1]) was 4 µg/mL (≈ 7.63 µM), the MIC [2] was 0.625 µg/mL (≈ 1.19 µM) and the MIC (Candida albicans) was 16 µg/mL (≈ 30.5 µM). For the same compound, the “growth inhibition (GI)” value [3] was 95%, the MIC ([3]; Mycobacterium tuberculosis, H37Rv) was 1 µg/mL (≈ 1.91 µM) and the MIC (Rhizopus) was 16 µg/mL (≈ 30.5 µM). The PI (Klebsiella pneumoniae [4]) was 2, the MIC (Escherichia coli) was 32 µg/mL (≈ 61 µM) and the PI (Staphylococcus aureus [5]) was 1. The MIC (Aspergillus flavus) was 8 µg/mL (≈ 15.3 µM), the MIC [6] was 10 µg/mL (≈ 19.1 µM) and the MIC [7] was 10 µg/mL (≈ 19.1 µM). For the same compound, the MIC (Staphylococcus aureus [8]) was 4 µg/mL (≈ 7.63 µM), the MIC [9] was 10 µg/mL (≈ 19.1 µM) and the MIC [10] was 10 µg/mL (≈ 19.1 µM).
